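Method: 48-hour compound exposure of cells in 96-well plates, five concentrations, linear interpolation of endpoints. The concentration for 50% growth inhibition is given as GI50.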 Active and inactive are the calls of the source. No stated cut-off is given here; in the data, active = GI50 up to about 1.1 µM and inactive = higher.
Tests used:
Assay in all cases: inhibition of tumour cell growth, NCI panel, 48 h
SK-MEL-28 = tested on: SK-MEL-28
K562 = tested on: K562
SN12C = tested on: SN12C
Malme-3M = tested on: Malme-3M
T47D = tested on: T47D
MDA-MB-435 = tested on: MDA-MB-435
SF-539 = tested on: SF-539
LOX IMVI = tested on: LOX IMVI
NCI/ADR-RES = tested on: NCI/ADR-RES
HCT-116 = tested on: HCT-116
SNB-75 = tested on: SNB-75
MCF7 = tested on: MCF7
OVCAR-8 = tested on: OVCAR-8
NCI-H23 = tested on: NCI-H23
SW-620 = tested on: SW-620
OVCAR-3 = tested on: OVCAR-3
786-0 = tested on: 786-0
SR = tested on: SR
HCC 2998 = tested on: HCC 2998

Row | Structure (SMILES) | GI50 (SK-MEL-28) | GI50 (K562) | GI50 (SN12C) | GI50 (Malme-3M) | GI50 (T47D) | GI50 (MDA-MB-435) | GI50 (SF-539) | GI50 (LOX IMVI) | GI50 (NCI/ADR-RES) | GI50 (HCT-116) | GI50 (SNB-75) | GI50 (MCF7) | GI50 (OVCAR-8) | GI50 (NCI-H23) | GI50 (SW-620) | GI50 (OVCAR-3) | GI50 (786-0) | GI50 (SR) | GI50 (HCC 2998)
1 | CCCC(C)NC(=O)c1ccc(N(C)Cc2cnc3nc(N)nc(N)c3n2)cc1 (centres undefined) | 18.5 µM (inactive) | 8 µM (inactive) | 44.6 µM (inactive) | 16.9 µM (inactive) | 24 µM (inactive) | 11.7 µM (inactive) | 11 µM (inactive) | 5.42 µM (inactive) | > 100 µM (inactive) | 5.16 µM (inactive) | 24.4 µM (inactive) | 23.3 µM (inactive) | 14.9 µM (inactive) | 29.4 µM (inactive) | 28.4 µM (inactive) | 21.4 µM (inactive) | 10.5 µM (inactive) | 17.6 µM (inactive) | –
2 | Cc1cc(Cl)nc2ccc(Cc3ccc4nc(Cl)cc(C)c4c3)cc12 | > 100 µM (inactive) | > 100 µM (inactive) | 85.1 µM (inactive) | 21.8 µM (inactive) | 6.25 µM (inactive) | 65.2 µM (inactive) | 12.6 µM (inactive) | 56.5 µM (inactive) | 33.5 µM (inactive) | 22.8 µM (inactive) | 3.3 µM (inactive) | 19.1 µM (inactive) | 28.6 µM (inactive) | 44.6 µM (inactive) | > 100 µM (inactive) | 39.3 µM (inactive) | 12.2 µM (inactive) | 85.3 µM (inactive) | –
3 | CCC1(c2ccc(OC)c(OC)c2)CCN(S(=O)(=O)c2ccc(C)cc2)C1 (centres undefined) | > 10 µM (inactive) | > 10 µM (inactive) | > 100 µM (inactive) | – | > 100 µM (inactive) | 82.6 µM (inactive) | > 100 µM (inactive) | > 100 µM (inactive) | 72.8 µM (inactive) | 57.4 µM (inactive) | > 100 µM (inactive) | > 100 µM (inactive) | – | > 100 µM (inactive) | > 100 µM (inactive) | > 100 µM (inactive) | > 100 µM (inactive) | > 10 µM (inactive) | > 100 µM (inactive)
4 | CN(C(=O)C12C3(C(=O)O)C4C5(C(=O)O)C3C1(C(=O)O)C5C42C(=O)O)C(C)(C)C (centres undefined) | > 100 µM (inactive) | > 100 µM (inactive) | > 100 µM (inactive) | – | > 100 µM (inactive) | > 100 µM (inactive) | > 100 µM (inactive) | > 100 µM (inactive) | > 100 µM (inactive) | > 100 µM (inactive) | 0.442 µM (active) | > 100 µM (inactive) | > 100 µM (inactive) | > 100 µM (inactive) | > 100 µM (inactive) | > 100 µM (inactive) | > 100 µM (inactive) | > 100 µM (inactive) | > 100 µM (inactive)
5 | CCCCn1c(C)c(C(=O)OCC)s/c1=N/Nc1nc2ccccc2nc1-c1ccccc1 | > 100 µM (inactive) | > 100 µM (inactive) | > 100 µM (inactive) | – | 52.1 µM (inactive) | > 100 µM (inactive) | > 100 µM (inactive) | > 100 µM (inactive) | > 100 µM (inactive) | > 100 µM (inactive) | > 100 µM (inactive) | 82.4 µM (inactive) | 56.2 µM (inactive) | 92.9 µM (inactive) | > 100 µM (inactive) | 72.1 µM (inactive) | 49.1 µM (inactive) | > 100 µM (inactive) | > 100 µM (inactive)
6 | COP(=O)(OC)OCN(C)CC/C=C(\C)CC/C=C(\C)CCC=C(C)C | 17.3 µM (inactive) | 6.21 µM (inactive) | 15.6 µM (inactive) | 14.9 µM (inactive) | 16.4 µM (inactive) | 18.5 µM (inactive) | 15.7 µM (inactive) | 15.8 µM (inactive) | 13 µM (inactive) | 11.8 µM (inactive) | 14.8 µM (inactive) | 15.2 µM (inactive) | 16 µM (inactive) | 17.2 µM (inactive) | 15.6 µM (inactive) | 15.3 µM (inactive) | 15.1 µM (inactive) | – | 11.6 µM (inactive)
7 | CCCN(CCC)C(=O)c1c(N2CCN(C)CC2)c2cccnc2n2c(C)cnc12 | > 100 µM (inactive) | > 100 µM (inactive) | > 100 µM (inactive) | > 100 µM (inactive) | 14.8 µM (inactive) | > 100 µM (inactive) | > 100 µM (inactive) | > 100 µM (inactive) | > 100 µM (inactive) | > 100 µM (inactive) | > 100 µM (inactive) | > 100 µM (inactive) | > 100 µM (inactive) | > 100 µM (inactive) | 17.5 µM (inactive) | 94.8 µM (inactive) | > 100 µM (inactive) | 39.5 µM (inactive) | –
8 | O=C1c2ccccc2C(=O)N1c1ccc(OCCN2CCCCC2)cc1 | > 100 µM (inactive) | > 100 µM (inactive) | > 100 µM (inactive) | > 100 µM (inactive) | > 100 µM (inactive) | > 100 µM (inactive) | > 100 µM (inactive) | > 100 µM (inactive) | > 100 µM (inactive) | > 100 µM (inactive) | – | > 100 µM (inactive) | > 100 µM (inactive) | > 100 µM (inactive) | > 100 µM (inactive) | > 100 µM (inactive) | > 100 µM (inactive) | > 100 µM (inactive) | > 100 µM (inactive)
9 | Cc1ccc2c(c1)nc(N)n[n+]2[O-] | > 100 µM (inactive) | > 100 µM (inactive) | > 100 µM (inactive) | – | > 100 µM (inactive) | > 100 µM (inactive) | > 100 µM (inactive) | > 100 µM (inactive) | > 100 µM (inactive) | > 100 µM (inactive) | 85.9 µM (inactive) | > 100 µM (inactive) | > 100 µM (inactive) | > 100 µM (inactive) | > 100 µM (inactive) | > 100 µM (inactive) | > 100 µM (inactive) | > 100 µM (inactive) | –
10 | COCC1OC(Sc2ccccc2)C(O)C(OC)C1OC (centres undefined) | > 100 µM (inactive) | > 100 µM (inactive) | > 100 µM (inactive) | > 100 µM (inactive) | > 100 µM (inactive) | > 100 µM (inactive) | > 100 µM (inactive) | > 100 µM (inactive) | > 100 µM (inactive) | > 100 µM (inactive) | – | > 100 µM (inactive) | > 100 µM (inactive) | > 100 µM (inactive) | > 100 µM (inactive) | > 100 µM (inactive) | > 100 µM (inactive) | > 100 µM (inactive) | > 100 µM (inactive)
11 | C/C(=C/CC[C@](C)(OC1OC(CO)C(O)C(O)C1OC1OC(C)C(O)C(O)C1O)[C@H]1CC[C@]2(C)[C@@H]1CC[C@@H]1[C@@]3(C)CC[C@H](O)C(C)(C)[C@@H]3C[C@H](O)[C@]12C)CO (some centres undefined) | > 100 µM (inactive) | > 100 µM (inactive) | > 100 µM (inactive) | > 100 µM (inactive) | > 100 µM (inactive) | > 100 µM (inactive) | > 100 µM (inactive) | > 100 µM (inactive) | > 100 µM (inactive) | > 100 µM (inactive) | > 100 µM (inactive) | > 100 µM (inactive) | > 100 µM (inactive) | > 100 µM (inactive) | > 100 µM (inactive) | > 100 µM (inactive) | > 100 µM (inactive) | > 100 µM (inactive) | –
12 | COc1ccc2c(C(=O)c3c(C)n(CCN4CCOCC4)c4ccccc34)cccc2c1 | > 100 µM (inactive) | 18.7 µM (inactive) | 71 µM (inactive) | 17.5 µM (inactive) | 17.4 µM (inactive) | 5.6 µM (inactive) | 84.3 µM (inactive) | 18.9 µM (inactive) | 16.9 µM (inactive) | 25.5 µM (inactive) | – | 11.3 µM (inactive) | 18.8 µM (inactive) | 18.8 µM (inactive) | 1.27 µM (inactive) | 12.1 µM (inactive) | 27.7 µM (inactive) | 19.2 µM (inactive) | –
13 | COc1ccc(NC(C)=O)c(C(O)CCNC(C)=O)c1 (centres undefined) | – | – | > 100 µM (inactive) | – | > 100 µM (inactive) | > 100 µM (inactive) | > 100 µM (inactive) | > 100 µM (inactive) | > 100 µM (inactive) | > 100 µM (inactive) | > 100 µM (inactive) | > 100 µM (inactive) | > 100 µM (inactive) | > 100 µM (inactive) | > 100 µM (inactive) | > 100 µM (inactive) | > 100 µM (inactive) | > 100 µM (inactive) | –
14 | C=C(C)C1CCC2(CO)C(O)CC3(C)C(CCC4C5(C)CCC(O)C(C)(C)C5CCC43C)C12 (centres undefined) | 10.4 µM (inactive) | 9.77 µM (inactive) | 16.5 µM (inactive) | 13.6 µM (inactive) | 1.06 µM (active) | 7.74 µM (inactive) | 12.7 µM (inactive) | 9.98 µM (inactive) | 15.3 µM (inactive) | 22.4 µM (inactive) | 3.7 µM (inactive) | 11.6 µM (inactive) | 3.85 µM (inactive) | > 10 µM (inactive) | 21.8 µM (inactive) | 11.4 µM (inactive) | 8.09 µM (inactive) | 42.8 µM (inactive) | –
15 | NC(=O)NC(=O)c1cccc(NC(=O)CI)c1 | 0.389 µM (active) | < 0.01 µM (active) | < 0.0197 µM (active) | – | 1.66 µM (inactive) | < 0.01 µM (active) | < 0.0229 µM (active) | < 0.0132 µM (active) | 0.039 µM (active) | < 0.01 µM (active) | 0.235 µM (active) | < 0.01 µM (active) | < 0.0123 µM (active) | < 0.0212 µM (active) | < 0.01 µM (active) | < 0.01 µM (active) | < 0.01 µM (active) | < 0.01 µM (active) | 0.228 µM (active)

Source: ChEMBL document CHEMBL1201862, “PubChem BioAssay data set” (2004)
